Measured values published in BindingDB's records for doi:10.1002/cbdv.201000242 (East China University of Science and Technology, 2011).

Tests used:
Test in all cases: Inhibitory Assay
Conditions in all cases: pH 6.5
[1] = biological target: T1, Tyrosine-protein phosphatase non-receptor type 2 (Homo sapiens, UniProt P17706)
T1 sequence (P17706 whole entry): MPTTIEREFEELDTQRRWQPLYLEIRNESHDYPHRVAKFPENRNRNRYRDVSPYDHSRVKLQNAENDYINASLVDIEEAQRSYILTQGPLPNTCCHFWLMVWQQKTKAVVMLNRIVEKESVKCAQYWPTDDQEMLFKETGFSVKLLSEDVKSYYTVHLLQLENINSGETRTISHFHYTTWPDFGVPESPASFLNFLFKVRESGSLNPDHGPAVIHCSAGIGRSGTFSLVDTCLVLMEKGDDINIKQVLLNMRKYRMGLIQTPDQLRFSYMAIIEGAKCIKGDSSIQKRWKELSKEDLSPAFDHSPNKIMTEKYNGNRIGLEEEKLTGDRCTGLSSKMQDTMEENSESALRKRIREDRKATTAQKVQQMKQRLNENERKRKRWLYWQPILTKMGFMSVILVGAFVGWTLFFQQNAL
Method: (§1) Enzymatic activity of enzyme was evaluated using pNPP assay. Briefly, a reaction mixture (100 µL) containing 50 mM MOPS (pH 6.5), 2 mM pNPP and recombinant enzymes was monitored at 405 nm for 2 min at 30 °C.

[2] = biological target: T2, Tyrosine-protein phosphatase non-receptor type 11 (Homo sapiens, UniProt Q06124)
T2 sequence (Q06124 whole entry): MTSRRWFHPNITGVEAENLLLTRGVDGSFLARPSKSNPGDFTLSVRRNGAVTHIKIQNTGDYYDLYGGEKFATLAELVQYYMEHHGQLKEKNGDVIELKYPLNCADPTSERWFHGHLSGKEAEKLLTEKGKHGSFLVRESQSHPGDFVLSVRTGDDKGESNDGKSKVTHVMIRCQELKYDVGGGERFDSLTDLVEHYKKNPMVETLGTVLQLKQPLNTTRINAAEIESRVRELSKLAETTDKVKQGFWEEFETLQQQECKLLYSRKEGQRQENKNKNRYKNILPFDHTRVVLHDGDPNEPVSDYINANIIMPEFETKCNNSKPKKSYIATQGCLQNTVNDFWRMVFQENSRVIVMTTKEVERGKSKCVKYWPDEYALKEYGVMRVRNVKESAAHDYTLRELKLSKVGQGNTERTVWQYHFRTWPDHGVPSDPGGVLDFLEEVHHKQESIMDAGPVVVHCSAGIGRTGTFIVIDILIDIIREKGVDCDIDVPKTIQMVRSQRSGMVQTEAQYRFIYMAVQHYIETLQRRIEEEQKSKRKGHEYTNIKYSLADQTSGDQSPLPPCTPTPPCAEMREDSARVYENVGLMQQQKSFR
Method: as §1

[3] = biological target: Tyrosine-protein phosphatase non-receptor type 6 (Homo sapiens, UniProt P29350)
Sequence of Tyrosine-protein phosphatase non-receptor type 6 (P29350 whole entry): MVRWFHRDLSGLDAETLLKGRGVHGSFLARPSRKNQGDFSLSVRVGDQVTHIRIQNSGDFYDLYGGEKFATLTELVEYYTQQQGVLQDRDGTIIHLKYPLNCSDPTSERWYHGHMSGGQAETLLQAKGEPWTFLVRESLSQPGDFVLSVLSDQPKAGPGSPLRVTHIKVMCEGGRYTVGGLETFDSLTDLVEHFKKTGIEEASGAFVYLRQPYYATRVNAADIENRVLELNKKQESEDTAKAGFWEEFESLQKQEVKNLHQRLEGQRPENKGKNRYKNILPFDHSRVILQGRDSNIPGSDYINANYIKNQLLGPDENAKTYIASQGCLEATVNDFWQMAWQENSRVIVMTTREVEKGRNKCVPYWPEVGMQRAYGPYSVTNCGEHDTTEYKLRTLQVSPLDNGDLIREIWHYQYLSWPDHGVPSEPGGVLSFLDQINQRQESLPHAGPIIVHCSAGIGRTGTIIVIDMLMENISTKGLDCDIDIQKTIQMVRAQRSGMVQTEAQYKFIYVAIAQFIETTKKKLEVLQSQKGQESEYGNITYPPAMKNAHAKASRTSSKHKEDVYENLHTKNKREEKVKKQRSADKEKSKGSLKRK
Method: as §1

[4] = biological target: T3, Tyrosine-protein phosphatase non-receptor type 1 (Homo sapiens, UniProt P18031)
T3 sequence (P18031 whole entry): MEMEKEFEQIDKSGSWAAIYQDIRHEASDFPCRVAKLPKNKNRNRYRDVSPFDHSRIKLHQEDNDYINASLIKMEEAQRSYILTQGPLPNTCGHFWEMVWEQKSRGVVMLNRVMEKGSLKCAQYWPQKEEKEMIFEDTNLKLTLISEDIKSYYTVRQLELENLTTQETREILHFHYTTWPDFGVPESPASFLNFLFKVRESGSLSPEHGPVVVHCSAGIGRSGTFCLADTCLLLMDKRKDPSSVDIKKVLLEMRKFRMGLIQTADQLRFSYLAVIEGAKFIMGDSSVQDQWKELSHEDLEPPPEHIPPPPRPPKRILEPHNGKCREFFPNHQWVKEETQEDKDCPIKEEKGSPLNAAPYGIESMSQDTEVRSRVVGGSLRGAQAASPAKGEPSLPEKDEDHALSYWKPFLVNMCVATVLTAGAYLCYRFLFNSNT
Method: as §1

[5] = biological target: Receptor-type tyrosine-protein phosphatase F (Homo sapiens, UniProt P10586)
Sequence of Receptor-type tyrosine-protein phosphatase F (P10586 whole entry): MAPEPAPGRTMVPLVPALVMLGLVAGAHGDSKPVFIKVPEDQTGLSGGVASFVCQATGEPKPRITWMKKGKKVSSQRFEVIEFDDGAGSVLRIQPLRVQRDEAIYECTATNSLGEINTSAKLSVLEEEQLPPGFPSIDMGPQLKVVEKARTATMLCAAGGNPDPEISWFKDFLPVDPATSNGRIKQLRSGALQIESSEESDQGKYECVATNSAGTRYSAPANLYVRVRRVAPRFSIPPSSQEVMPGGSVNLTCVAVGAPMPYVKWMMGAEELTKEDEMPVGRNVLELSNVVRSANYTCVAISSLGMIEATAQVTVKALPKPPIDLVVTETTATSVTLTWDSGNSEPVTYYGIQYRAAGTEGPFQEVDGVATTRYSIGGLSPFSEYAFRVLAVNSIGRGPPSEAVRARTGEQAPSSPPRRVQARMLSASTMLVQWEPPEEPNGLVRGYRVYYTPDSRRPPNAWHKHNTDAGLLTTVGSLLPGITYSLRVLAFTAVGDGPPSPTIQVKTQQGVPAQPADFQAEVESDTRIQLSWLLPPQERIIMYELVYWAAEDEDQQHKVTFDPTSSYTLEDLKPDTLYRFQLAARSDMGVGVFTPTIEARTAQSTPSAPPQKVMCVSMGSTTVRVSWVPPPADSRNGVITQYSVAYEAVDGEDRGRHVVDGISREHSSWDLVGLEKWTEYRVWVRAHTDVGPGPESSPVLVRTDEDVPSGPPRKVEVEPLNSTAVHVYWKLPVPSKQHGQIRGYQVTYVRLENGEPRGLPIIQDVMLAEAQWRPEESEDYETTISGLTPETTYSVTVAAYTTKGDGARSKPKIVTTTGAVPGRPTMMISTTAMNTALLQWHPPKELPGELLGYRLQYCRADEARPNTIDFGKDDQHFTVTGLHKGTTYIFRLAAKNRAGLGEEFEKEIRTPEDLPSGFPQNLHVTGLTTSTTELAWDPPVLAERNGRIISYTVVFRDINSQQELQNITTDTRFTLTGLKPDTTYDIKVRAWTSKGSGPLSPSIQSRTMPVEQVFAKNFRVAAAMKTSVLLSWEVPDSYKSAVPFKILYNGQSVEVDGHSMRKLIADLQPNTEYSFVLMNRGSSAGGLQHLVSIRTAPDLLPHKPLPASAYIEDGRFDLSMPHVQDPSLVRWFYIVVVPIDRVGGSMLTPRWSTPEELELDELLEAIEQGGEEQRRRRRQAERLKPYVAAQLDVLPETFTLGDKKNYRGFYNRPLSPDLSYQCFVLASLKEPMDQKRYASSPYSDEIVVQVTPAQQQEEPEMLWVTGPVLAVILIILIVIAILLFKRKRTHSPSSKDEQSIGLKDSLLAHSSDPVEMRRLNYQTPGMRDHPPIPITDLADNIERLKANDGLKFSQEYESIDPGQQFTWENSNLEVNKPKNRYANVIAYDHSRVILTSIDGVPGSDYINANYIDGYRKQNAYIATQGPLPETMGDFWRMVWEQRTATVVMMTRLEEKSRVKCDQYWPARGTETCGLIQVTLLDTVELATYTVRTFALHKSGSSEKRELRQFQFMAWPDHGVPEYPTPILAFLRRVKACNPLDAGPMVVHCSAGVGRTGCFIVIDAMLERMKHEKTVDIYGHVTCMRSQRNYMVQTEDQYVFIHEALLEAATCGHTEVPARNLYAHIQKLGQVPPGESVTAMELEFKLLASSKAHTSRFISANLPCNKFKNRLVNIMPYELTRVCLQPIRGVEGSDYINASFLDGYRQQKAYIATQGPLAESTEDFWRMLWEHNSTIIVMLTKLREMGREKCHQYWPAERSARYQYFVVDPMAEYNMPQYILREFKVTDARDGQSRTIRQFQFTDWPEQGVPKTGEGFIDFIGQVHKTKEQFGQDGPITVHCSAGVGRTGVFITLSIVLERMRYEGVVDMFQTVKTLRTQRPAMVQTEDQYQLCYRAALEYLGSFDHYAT
Method: as §1

SMILES | IC50 [1] [µM] | IC50 [2] [µM] | IC50 [3] [µM] | IC50 [4] [µM] | IC50 [5] [µM]
CC(=O)OC[C@H]1O[C@H](n2cc(Cn3cnc4c(Cl)nc(N)nc43)nn2)[C@H](OC(C)=O)[C@@H](OC(C)=O)[C@@H]1OC(C)=O [2-Amino-6-chloro-9-{[1-(2,3,4,6-tetra-O-acetyl-b-d-glucopyranosyl)-1H-1,2,3-triazol-4-yl]methyl}-9H-purine (7)] | > 80 | > 80 | > 80 | > 80 | > 80
C#CCn1cnc2c(Cl)nc(N)nc21 [6-Chloro-9-(prop-2-yn-1-yl)-9H-purin-2-amine (2)] | > 80 | > 80 | > 80 | 232 | > 80
CC(=O)OC[C@H]1O[C@H](n2cc(CNc3nc(Cl)c4ncn(Cc5cn([C@H]6O[C@H](COC(C)=O)[C@@H](OC(C)=O)[C@H](OC(C)=O)[C@H]6OC(C)=O)nn5)c4n3)nn2)[C@H](OC(C)=O)[C@@H](OC(C)=O)[C@@H]1OC(C)=O [6-Chloro-9-{[1-(2,3,4,6-tetra-O-acetyl-b-d-glucopyranosyl)-1H-1,2,3-triazol-4-yl]methyl}-2-({[1-(2,3,4,6-tetra-O-acetyl-b-d-glucopyranosyl)-1H-1,2,3-triazol-4-yl]methyl}amino)-9H-purine (8)] | > 80 | > 80 | > 80 | > 80 | > 80
CO[C@H]1O[C@H](Cn2cc(CNc3nc(Cl)c4ncn(Cc5cn(C[C@H]6O[C@H](OC)[C@H](OCc7ccccc7)[C@@H](OCc7ccccc7)[C@@H]6OCc6ccccc6)nn5)c4n3)nn2)[C@@H](OCc2ccccc2)[C@H](OCc2ccccc2)[C@H]1OCc1ccccc1 [6-Chloro-N,9-bis[(1-{[(2R,3R,4S,5R,6S)-3,4,5-tris(benzyloxy)-tetrahydro-6-methoxy-2H-pyran-2-yl]methyl}-1H-1,2,3-triazol-4-yl)methyl]-9H-purin-2-amine (13)] | 11 | > 80 | > 80 | 2.2 | > 80
CO[C@H]1O[C@H](Cn2cc(CNc3nc(Cl)c4ncn(Cc5cn(C[C@H]6O[C@H](OC)[C@H](OCc7ccccc7)[C@@H](OCc7ccccc7)[C@H]6OCc6ccccc6)nn5)c4n3)nn2)[C@H](OCc2ccccc2)[C@H](OCc2ccccc2)[C@H]1OCc1ccccc1 [6-Chloro-N,9-bis[(1-{[(2R,3S,4S,5R,6S)-3,4,5-tris(benzyloxy)-tetrahydro-6-methoxy-2H-pyran-2-yl]methyl}-1H-1,2,3-triazol-4-yl)methyl]-9H-purin-2-amine (14)] | 18 | > 80 | > 80 | 3.2 | > 80
C#CCNc1nc(Cl)c2ncn(CC#C)c2n1 [6-Chloro-N,9-di(prop-2-yn-1-yl)-9H-purin-2-amine (3)] | > 80 | > 80 | > 80 | 75.7 | > 80
COc1nc(NCc2cn(C[C@H]3O[C@H](OC)[C@H](OCc4ccccc4)[C@@H](OCc4ccccc4)[C@H]3OCc3ccccc3)nn2)nc2c1ncn2Cc1cn(C[C@H]2O[C@H](OC)[C@H](OCc3ccccc3)[C@@H](OCc3ccccc3)[C@H]2OCc2ccccc2)nn1 [6-Methoxy-N,9-bis[ (1-{[(2R,3S,4S,5R,6S)-3,4,5-tris(benzyloxy)-tetrahydro-6-methoxy-2H-pyran-2-yl]methyl}-1H-1,2,3-triazol-4-yl)methyl]-9H-purin-2-amine (16)] | 2.9 | 35.7 | 24.9 | 1.5 | > 80
COc1nc(NCc2cn(C[C@H]3O[C@H](OC)[C@H](OCc4ccccc4)[C@@H](OCc4ccccc4)[C@@H]3OCc3ccccc3)nn2)nc2c1ncn2Cc1cn(C[C@H]2O[C@H](OC)[C@H](OCc3ccccc3)[C@@H](OCc3ccccc3)[C@@H]2OCc2ccccc2)nn1 [6-Methoxy-N,9-bis[(1-{[(2R,3R,4S,5R,6S)-3,4,5-tris(benzyloxy)-tetrahydro-6-methoxy-2H-pyran-2-yl]methyl}-1H-1,2,3-triazol-4-yl)methyl]-9H-purin-2-amine (15)] | 16.2 | > 80 | > 80 | 7.9 | > 80
CO[C@H]1O[C@H](Cn2cc(Cn3cnc4c(Cl)nc(N)nc43)nn2)[C@H](OCc2ccccc2)[C@H](OCc2ccccc2)[C@H]1OCc1ccccc1 [Methyl 6-{4-[(2-Amino-6-chloro-9H-purin-9-yl)methyl]-1H-1,2,3-triazol-1-yl}-2,3,4-tri-O-benzyl-6-deoxy-a-d-galactopyranoside (10)] | 53.6 | > 80 | > 80 | 11.1 | > 80
CO[C@H]1O[C@H](Cn2cc(Cn3cnc4c(Cl)nc(N)nc43)nn2)[C@@H](OCc2ccccc2)[C@H](OCc2ccccc2)[C@H]1OCc1ccccc1 [Methyl 6-{4-[(2-Amino-6-chloro-9H-purin-9-yl)methyl]-1H-1,2,3-triazol-1-yl}-2,3,4-tri-O-benzyl-6-deoxy-a-d-glucopyranoside (9)] | 29.9 | > 80 | > 80 | 7.2 | > 80
COc1nc(N)nc2c1ncn2Cc1cn(C[C@H]2O[C@H](OC)[C@H](OCc3ccccc3)[C@@H](OCc3ccccc3)[C@H]2OCc2ccccc2)nn1 [Methyl 6-{4-[(2-Amino-6-methoxy-9H-purin-9-yl)methyl]-1H-1,2,3-triazol-1-yl}-2,3,4-tri-O-benzyl-6-deoxy-a-d-galactopyranoside (12)] | > 80 | > 80 | > 80 | > 80 | > 80
COc1nc(N)nc2c1ncn2Cc1cn(C[C@H]2O[C@H](OC)[C@H](OCc3ccccc3)[C@@H](OCc3ccccc3)[C@@H]2OCc2ccccc2)nn1 [Methyl 6-{4-[(2-Amino-6-methoxy-9H-purin-9-yl)methyl]-1H-1,2,3-triazol-1-yl}-2,3,4-tri-O-benzyl-6-deoxy-a-d-glucopyranoside (11)] | > 80 | > 80 | > 80 | > 80 | > 80
